These are literature values, as cited in patent publication US20140187513A1, “METHOD OF IMPROVING SKILLS WITH A COMPOSITION COMPRISING NON-DIGESTIBLE SACCHARIDE” (priority 2007, published 2014).

The conditions of this data set: oral, autistic children, pilot study.

Consider `CN[C@H](CC(C)C)C(=O)N[C@H]1C(=O)N[C@@H](CC(N)=O)C(=O)N[C@H]2C(=O)N[C@H]3C(=O)N[C@H](C(=O)N[C@H](C(=O)O)c4cc(O)cc(O)c4-c4cc3ccc4O)[C@H](O)c3ccc(c(Cl)c3)Oc3cc2cc(c3O[C@@H]2O[C@H](CO)[C@@H](O)[C@H](O)[C@H]2O[C@H]2C[C@](C)(N)[C@H](O)[C@H](C)O2)Oc2ccc(cc2Cl)[C@H]1O` [vancomycin], for which the “cognitive effect following vancomycin treatment” value is recorded as “significant cognitive improvement”.
